# Measurements from patent publication US20240245677A1, “SELECTED COMPOUNDS FOR TARGETED DEGRADATION OF BRD9” (C4 THERAPEUTICS, INC., priority 2021, published 2024).
# How the values were obtained:
# in vitro = conditions: plasma; for % Bound / % Remaining at 3 hours: 3 h, 2 µM
# Experimental: Plasma protein binding (PPB) of Compound 1 was evaluated in plasma from mice, rats, dogs, cynomolgus monkeys, and humans using ultracentrifugation.
# Frozen plasma from CD-1 mice, Sprague-Dawley rats, beagle dogs, cynomolgus monkeys, and humans was purchased and stored at ≤−30° C. On the day of study, plasma samples of CD-1 mice, Sprague-Dawley rats, beagle dogs, cynomolgus monkeys and humans were thawed under running cold tap water and centrifuged to remove any particulates.
# For the internal standard, telmisartan, a 1 mg/mL solution was prepared by dissolving 1.4 mg of telmisartan in 1.4 mL of DMSO, and stored at 4° C.
# The 10 mM stock solution of each test compound was used to prepare 400 μM intermediate stocks in methanol. Then, a 2 μM working stock of each test compound was prepared for plasma from each species (mouse, rat, dog, monkey, and human) by spiking 12 μL of the 400 μM intermediate stock for each test compound into 2400 μL of thawed and prepared plasma from a test species.
# 400 μL of blank plasma for each species was transferred to a 0.5 mL Beckman tube (Part No. 343776, Beckman Coulter Life Sciences, Indianapolis, IN, USA) and centrifuged for 3 hours at 627000×g at 37° C. The supernatant was removed and kept at room temperature.
# To prepare for ultracentrifugation, the rotor of the centrifuge was placed into an incubator and warmed up to 37° C. before centrifugation. The vacuum switch of the OPTIMA™ MAX-TL Ultracentrifuge (Beckman Coulter Life Sciences, Indianapolis, IN, USA) was turned on and the vacuum was reduced to less than 10 microns to warm up the system. The ultracentrifuge's parameters were set to the following: Temperature—37° C.; Time—3 hours; and Speed—627000×g. For each species and each test compound, 2.4 mL of working stock was mixed and pre-incubated for 45 minutes at 37° C. Then, 60 μL was separated and precipitated with 200 μL of acetonitrile containing internal standard and labeled as (TO), and 0.4 mL (triplicates) were transferred to Beckman 2 mL tubes (Part No. 344625, Beckman Coulter Life Sciences, Indiana, IN, USA).
# For each species and each test compound, the triplicate 0.4 mL sample tubes were centrifuged for 3 hours at 627000×g at 37° C. […] At 45 minutes, 60 μL was separated, precipitated with 200 μL of acetonitrile containing internal standard and labelled as (T45). After completion of 3 hours, 60 μL of incubated samples were separated, precipitated with acetonitrile containing internal standard, and labeled as (T3).
# After completing the 3 hours of centrifugation, 30 μl of the top fraction of supernatant from each sample tube was removed (free fraction) and precipitated with acetonitrile containing internal standard (labeled as top sample).
# After removing 30 μL of the top fraction, remaining top and bottom layer were mixed thoroughly to make a uniform mixture. From this mixture, 30 μL of bottom sample was collected and precipitated with acetonitrile containing internal standard (labelled as bottom sample).
# Matrix matching was done for crashed stability samples (TO, T45 and T3 samples) by adding 30 μL of a 50:50 mixture of blank plasma supernatant and phosphate-buffered saline (PBS), and for top and bottom samples, by adding 30 μL of blank plasma (kept at room temperature).
# All the stability samples and centrifuged samples were vortexed at 1000 rpm for 5 minutes and centrifuged at 4000 rpm for 10 minutes. Supernatant from each sample was separated, diluted 2-fold with water, and analyzed in LC-MS/MS.
# Samples (supernatant-free fraction and total plasma) were analyzed by LCMS-MS (no standards).
# [1] = Monkey Hepatocyte Stability Assay; format: in vitro ADME, cynomolgus monkey; conditions: cryopreserved hepatocytes
# Experimental: (§1) The metabolic stability of Compound 1 was evaluated using cryopreserved hepatocytes from mice, rats, dogs, cynomolgus monkeys, and humans.
# (§2) 50 μL of 1 mM intermediate solutions for each test compound was prepared by adding 5 μL of 10 mM stock solution to 45 μL of a 1:1 mixture of water and acetonitrile. A 2 μM working stocks for each test compound were prepared in incubation media, InvitroGRO™ KHB (Bio IVT, Westbury, NY, USA), by adding 2 μL of 1 mM intermediate stock to 998 μL of incubation media.
# (§3) To thaw the hepatocytes, InvitroGRO™ HT thawing medium (BioIVT, Westbury, NY, USA) was prewarmed to 37° C., and 48 mL of warmed thawing medium was transferred to a sterile 50 mL conical tube. The hepatocyte vial was removed from the liquid nitrogen Dewar, and gently thawed in a water bath at 37° C. for 1-2 minutes, then the contents of the vial were emptied into a conical tube with prewarmed InvitroGRO HT medium. 1 mL of prewarmed InvitroGRO HT medium was added to each emptied hepatocyte vial to resuspend any remaining cells, and the contents were pipetted into the hepatocyte suspension. The tube containing the hepatocyte suspension was centrifuged at 50*g for 5 minutes. The supernatant was removed carefully, and the remaining pellet was resuspended by adding 1 mL of incubation media, InvitroGRO KHB, and gently shaking until there were no clumps.
# (§4) Cell viability was determined using the trypan blue method. 25 μL of hepatocyte cell suspension was added to a trypan blue (TB) solution (containing 775 μL InvitroGRO KHB and 200 μL of Trypan Blue). Cell count was taken using a hemacytometer.
# (§5) For mouse hepatocytes, 200 μL of hepatocytes (0.8×10^6 cells/mL) were added to the wells of a 48 well plate (Catalog No. 92048, TPP Techno Plastic Products AG, Trasadingen, Switzerland) and pre-incubated for 30 minutes at 37° C. For rat, dog, monkey, […], 200 μL of hepatocytes (2×10^6 cells/mL) were added to the wells of a 48 well plate (Catalog No. 92048, TPP Techno Plastic Products AG, Trasadingen, Switzerland) and pre-incubated for 30 minutes at 37° C.
# (§6) For all species of hepatocytes, once the pre-incubation period was complete, 200 μL of 2 μM working stock of test compound was added to the wells of the plate, and the plate was vortexed on a Vibramax™ 100 (P/N 544-21200-00, Heidolph Instruments GmbH & Co. KG, Schwabach, Germany) at 500 rpm in a 37° C. CO2 incubator (Model No. 51026280, ThermoFisher Scientific, Waltham, MA, USA). At each time point of 0, 15, 30, 60, 90, and 120 minutes, 50 μL of incubation mixture was precipitated with 200 μL of acetonitrile containing internal standard.
# (§7) At the end of the experiment, the samples were centrifuged at 4000 rpm for 10 minutes. […]
# [2] = system: cryopreserved hepatocytes from cynomolgus monkeys; experiment: Monkey Hepatocyte Stability Assay; format: in vitro ADME, cynomolgus monkey
# Experimental: as §1, §2, §3, §4, §5, §6, §7
smiles,measurement,setting,value
"COc1cc(-c2cn(C)c(=O)c(C)c2C)cc(OC)c1CN1CC[C@H](N2CCN(c3ccc(N[C@H]4CCC(=O)NC4=O)cc3F)CC2)C(F)(F)C1 [Compound 1, (S)-3-((4-(4-((S)-1-(2,6-dimethoxy-4-(1,4,5-trimethyl-6-oxo-1,6-dihydropyridin-3-yl)benzyl)-3,3-difluoropiperidin-4-yl)piperazin-1-yl)-3-fluorophenyl)amino)-piperidine-2,6-dione]","fraction unbound at 3 h, 2 µM","in vitro; CD-1, mouse",0.0339
same,% Bound,"in vitro; CD-1, mouse",96.61%
same,% Remaining at 3 hours,"in vitro; CD-1, mouse",84.69%
same,"fraction unbound at 3 h, 2 µM","in vitro; Sprague-Dawley, rat",0.0971
same,% Bound,"in vitro; Sprague-Dawley, rat",90.29%
same,% Remaining at 3 hours,"in vitro; Sprague-Dawley, rat",88.73%
same,"fraction unbound at 3 h, 2 µM","in vitro; beagle, dog",0.0646
same,% Bound,"in vitro; beagle, dog",93.54%
same,% Remaining at 3 hours,"in vitro; beagle, dog",99.38%
same,"fraction unbound at 3 h, 2 µM",in vitro; human,0.067
same,% Remaining at 3 hours,in vitro; human,66.87%
same,"fraction unbound at 3 h, 2 µM",in vitro; monkey,0.0514
same,% Bound,in vitro; monkey,94.86%
same,% Remaining at 3 hours,in vitro; monkey,99.14%
same,half-life at 1 µM,[1],44.2 min
same,hepatocyte CLint at 1 µM,[1]; read-out: CL int cells,15.7 µL/min/1e6 cells
same,CLint scaled at 1 µM,[1]; read-out: CL int in vivo,56.5 mL/min/kg
same,CLhb scaled well stirred,[2],24.7 mL/min/kg body wt.
